From PMC7904875, “Identification and Functional Analysis of SlitOBP11 From Spodoptera litura” (Frontiers in Physiology, 2021)
Read-outs that look alike come from different tables or passages of the source.

How the values were obtained:
Assay type in all cases: binding
SlitOBP11 [1] = target: T1, SlitOBP11 (Spodoptera litura, UniProt A0A9J7E9A4); assay: competitive displacement of 1-NPN fluorescence
T1 construct: gene LOC111356549; mature protein, predicted 23-residue signal peptide removed; ORF 465 bp, given as 155 aa; pET32a(+) (BamHI/HindIII), E. coli BL21(DE3); Ni-NTA purified, tag cleaved with enterokinase
T1 sequence (A0A9J7E9A4 24-154): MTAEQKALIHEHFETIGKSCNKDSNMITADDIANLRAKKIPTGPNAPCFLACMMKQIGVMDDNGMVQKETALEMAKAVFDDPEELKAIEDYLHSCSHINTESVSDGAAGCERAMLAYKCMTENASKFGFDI

SlitOBP11 [2] = target: T1, SlitOBP11; assay: fluorescence titration, Scatchard; conditions: read-out: dissociation constant
SlitOBP11 [3] = target: T1, SlitOBP11; assay: competitive displacement of 1-NPN fluorescence; conditions: for Ki: read-out: Ki (μmol L^-1)^∗
Text: competitive displacement of 1-NPN fluorescence on SlitOBP11

| Molecule | IC50 (SlitOBP11 [1]) [µM] | further results |
| --- | --- | --- |
| C=CC(C)(O)CCC=C(C)C (racemic) [(±)-Linalool] |  | IC50 (SlitOBP11 [1]; read-out: IC50): > 50 µM |
| c1ccc(Nc2cccc3ccccc23)cc1 [1-NPN, 1-N-Phenyl-naphthylamine] |  | Kd (SlitOBP11 [2]): 8.09 ± 0.26 µM |
| CCCCC(C)=O [2-hexanone] | > 50 |  |
| CCCC(=O)CC [3-hexanone] | > 50 |  |
| CC(C)CC(=O)O [3-methylbutyric acid] | > 50 |  |
| CCC(C)CC(=O)O (stereo not drawn) [3-methylpentanoic acid] | > 50 |  |
| CC(C)CCC(=O)O [4-methylpentanoic acid] | > 50 |  |
| C=C(C)[C@H]1CC=C(C)C(=O)C1 [(+)-Carvone] | > 50 |  |
| CC/C=C/CCCCCCCCCCOC(C)=O [(E)-11-tetradecenly acetate, (E)-11-Tetradecenyl acetate] |  | Ki (SlitOBP11 [3]): 13.5 ± 0.479 µM; IC50 (SlitOBP11 [1]; read-out: IC50): 15.2 ± 0.54 µM |
| C=C(C)[C@H]1CC=C(C)CC1 [(R)-(+)-limonene] | > 50 |  |
| CCCC/C=C\CCCCCCCCOC(C)=O [(Z)-9-tetradecenyl acetate, (Z)-9-Tetradecenyl acetate] | 11.2 ± 0.55 | Ki (SlitOBP11 [3]): 9.97 ± 0.492 µM |
| CC/C=C/C=C\CCCCCCCCOC(C)=O [(Z, E)-9,11-tetradecadienyl acetate, (Z,E)-9,11-Tetradecadienyl acetate] | 15.6 ± 1.41 | Ki (SlitOBP11 [3]): 13.9 ± 1.44 µM |
| C/C=C/C/C=C\CCCCCCCCOC(C)=O [(Z, E)-9,12-tetradecadienyl acetate, (Z,E)-9,12-Tetradecadienyl acetate] | 16.2 ± 0.32 | Ki (SlitOBP11 [3]): 14.4 ± 0.317 µM |
| CC(=O)O [Acetic acid] | > 50 |  |
| CC1=CCCC(C)(C)C1/C=C/C(C)O (stereo not drawn) [Alpha- ionol] | > 50 |  |
| CC1=CCC(C(C)C)C=C1 (stereo not drawn) [Alpha-phellandrene] | > 50 |  |
| O=Cc1ccccc1 [Benzaldehyde] | > 50 |  |
| CC(=O)OCc1ccccc1 [Benzyl acetate] | > 50 |  |
| OCc1ccccc1 [Benzyl alcohol] | > 50 |  |
| C=C1CC/C=C(\C)CC[C@@H]2[C@@H]1CC2(C)C [Beta-caryophyllene] | > 50 |  |
| CC(=O)/C=C/C1=C(C)CCCC1(C)C [Beta-ionone] | > 50 |  |
| CCCC(=O)O [Butyric acid] | > 50 |  |
| CC/C=C\CCOC(C)=O [Cis-3-hexenyl acetate] | > 50 |  |
| C/C=C/C(=O)O [Crotonic acid] |  | IC50 (SlitOBP11 [1]; read-out: IC50 (μmol L^-1), 2 μM protein, 2 μM 1-NPN, 30 mM Tris-HCl pH 7.4, 4°C): > 50 µM |

| Molecule | IC50 (SlitOBP11 [1]) [µM] | further results |
| --- | --- | --- |
| CCCCCCCCCC=O [Decanal] | > 50 |  |
| CCCCCCCCCCCC [Dodecane] | > 50 |  |
| CCc1ccccc1 [Ethylbenzene] | > 50 |  |
| CC12CCC(CC1)C(C)(C)O2 [Eucalyptol] | > 50 |  |
| CC(=O)OC/C=C(\C)CCC=C(C)C [Geranyl acetate] | > 50 |  |
| CC(=O)CC/C=C(\C)CCC=C(C)C [Geranylacetone] | > 50 |  |
| CCCCCCC(=O)O [Heptanoic acid] | > 50 |  |
| CCCCCC(=O)O [Hexanoic acid] | > 50 |  |
| c1ccc2[nH]ccc2c1 [Indole] | > 50 |  |
| CC(C)C(=O)O [Isobutyric acid] | > 50 |  |
| COC(=O)c1ccccc1N [Methyl anthranilate] |  | IC50 (SlitOBP11 [1]; read-out: IC50): > 50 µM |
| COC(=O)c1ccccc1O [Methyl salicylate] | > 50 |  |
| C=CC(=C)CCC=C(C)C [Myrcene] | > 50 |  |
| CCCCCCCCCCCCCCCCCC [N-octadecane] | > 50 |  |
| CCCCCCCC=O [Octyl aldehyde] | > 50 |  |
| CCCCC(=O)O [Pentanoic acid] | > 50 |  |
| CC(=O)OCCc1ccccc1 [Phenethyl acetate] | 48.6 ± 0.52 | Ki (SlitOBP11 [3]): 43.1 ± 0.488 µM |
| OCCc1ccccc1 [Phenethyl alcohol] | > 50 |  |
| O=CCc1ccccc1 [Phenylacetaldehyde] |  | IC50 (SlitOBP11 [3]): 43.4 ± 10.1 µM; Ki (SlitOBP11 [3]): 35.8 ± 9.76 µM |
| CCC(=O)O [Propanoic acid] | > 50 |  |
| CCCCCCCCCCCCCC [Tetradecane] | > 50 |  |
| C=CC(C)(O)CC/C=C(\C)CCC=C(C)C (stereo not drawn) [Trans-nerolidol] | > 50 |  |
| CCCCCCCCCCCCC [Tridecane] | > 50 |  |
| Farnesene |  | IC50 (SlitOBP11 [1]; 2 μM protein, 2 μM 1-NPN, 30 mM Tris-HCl pH 7.4, 4°C, read-out: IC50): > 50 µM |
